Reference: patent publication US20150368195A1, “INDOLINE COMPOUNDS FOR TREATMENT AND/OR PREVENTION OF INFLAMMATION DISEASES” (Taipei Medical University, priority 2014, published 2015)
“Also recorded” adds a separate entry of the source.

Assays:
[1] = system: adjuvant-induced arthritis; test: adjuvant-induced arthritis (AIA) model; conditions: MPT0G009 25 mg/kg
Method: (FIG. 8B) Hind paw volumes in the indicated group of rats were measured using a digital plethysmometer on the indicated day after AIA induction. […] (FIG. 8D) Serum levels of interleukin (IL)-1β (left panel) and IL-6 (right panel) on day 21 as measured by enzyme-linked immunosorbent assay (ELISA). […] (FIG. 8F) The bone mineral density (BMD, in mg/mm^3) and the bone mineral content (BMC, in mg) values for the bone tissue of the tarsus were analyzed using CT Analysis Software.

interleukin-6 (IL-6) = test: LPS-induced IL-6 production in RAW 264.7 macrophages; conditions: Mus musculus, RAW264.7, read-out: IC50 IL-6
histone H3 (Acetyl-H3) = test: histone H3 acetylation, Western blot, HIG-82 synoviocytes; type: cell-based; conditions: 3 μM MPT0G009 or 60 μM SAHA; 6, 12, 24 h; starting at 6 h
[2] = maximum tolerated dose (MTD); type: in vivo; conditions: for Lethality / Change of body weight Day 7 / Change of body weight Day 14 / Change of body weight Day 21: qd × 7; for Change of body weight Day 7 / Change of body weight Day 14 / Change of body weight Day 21: mean ± SEM
HDAC3 = test: HDAC isoform protein levels, Western blot, RA-FLS; type: cell-based; conditions: 12 or 24 h; 1 μM MPT0G009 or 30 μM SAHA
Method: Then cells were harvested and cell lysates were prepared for Western blot analysis of the indicated proteins. (FIG. 5C) RA-FLS were incubated for 1 h with or without the proteasome inhibitor, MG132 (1 μM). […] Results shown are representative of three independent experiments.

[3] = system: carrageenan-induced hind paw edema; test: carrageenan-induced hind paw edema
Method: A 0.5% (w/v) suspension of carrageenan in normal saline was administered to male Wistar rats (7-weeks) by intradermal injection into the base of the right hind paw. […] A positive control group was included in which rats were pretreated with 5 mg/kg Indomethacin. […] The results are expressed as the mean±SEM, with n=5. *p<0.05 compared to the control group; #p<0.05 for the comparison of the indicated groups.
Animals were divided into four groups (n=5). 0.5% (w/v) suspension of carrageenan in normal saline was administered to male Wistar rats (7-weeks) by intradermal injection into the base of the right hind paw. […] A positive control group was included in which rats were pretreated with 5 mg/kg Indomethacin. Three hours after carrageenan administration, the thickness and volume of the right hind paw were measured by digital caliper and digital plethysmometer (Diagnostic & Research Instruments CO., Ltd, Taipei, Taiwan), respectively.

nitric oxide (NO) = test: LPS-induced nitric oxide production in RAW 264.7 macrophages; type: cell-based, Mouse
Method: Nitrite concentration was determined using a dilution of sodium nitrite as a standard.
Furthermore, the anti-inflammatory effects of MPT0G009 was evaluated. […] These supernatants were then assayed for PGE2, NO, and IL-6.

collagen I = test: TGF-β-induced collagen I production, Western blot; type: cell-based, human; conditions: WI-38 lung fibroblasts; 1 μM pretreatment; TGF-β 10 ng/mL 24 h
Method: Western blot analysis was performed. First, WI-38 lung fibroblasts were incubated with different concentrations of MPT0E028 (0.01, 0.03, 0.1, 0.3, or 1 μM) (FIG. 10A) or MPT0G009 (0.01, 0.03, 0.1, 0.3, or 1 μM) (FIG. 10B) for 30 min before and during incubation for 2 h with TGF-β (10 ng/mL). WI-38 lung fibroblasts were incubated with 1 μM MPT0E028 and MPT0G009 for 30 min and following another incubation for 2 h with 1 U/ml thrombin (FIG. 10C) and 10 nM ET-1 (FIG. 10D). The collagen I production from WI-38 lung fibroblasts stimulated by 10 ng/mL TGF-β for 24 h was inhibited with 1 μM MPT0E028 and MPT0G009 pretreatment (FIG. 10E).
WI-38 cells, a normal human embryonic lung fibroblast cell line, were obtained from American Type Culture Collection (Manassas, Va.). […]
Western blot analyses were performed as described previously (Chen B C, Chang Y S, Kang J C, Hsu M J, Sheu J R, Chen T L, et al. Peptidoglycan induces nuclear factor-kappaB activation and cyclooxygenase-2 expression via Ras, Raf-1, and ERK in RAW 264.7 macrophages. J Biol Chem 2004; 279:20889-97). […] The immunoreactivity was detected using enhanced chemiluminescence (ECL) following the manufacturer's instructions. Quantitative data were obtained using a computing densitometer with scientific imaging systems (Kodak, Rochester, N.Y.). […]

[4] = day 21, ELISA, SAHA 200 mg/kg, indomethacin 1 mg/kg
[5] = oral daily days 2 to 21, SAHA 200 mg/kg, indomethacin 1 mg/kg, vs vehicle

For `COc1ccc(S(=O)(=O)N2CCc3cc(C=CC(=O)NO)ccc32)cc1` [Compound 9, 3-[1-(4-methoxybenzenesulfonyl)-2,3-dihydro-1H-indol-5-yl]-N-Hydroxyacrylamide], the “bone destruction (micro-computed tomography)” value [1] was “ameliorated”, the “bone mineral density (BMD) and bone mineral content (BMC)” value [1] was “prevented the decrease” and the “cartilage degradation (safranin O staining of ankle joints)” value [1] was “markedly reduced”. For the same compound, the decrease of osteoblasts [1] was “apparently ameliorated”, the “formation of osteoclasts (TRAP stain)” value [1] was “significantly decreased” and the “leukocyte infiltration, synovitis (hematoxylin and eosin staining)” value [1] was “significantly reduced”. The “levels of acetyl-histone H3 (immunohistochemical staining)” value [1] was “increased levels”, the “synoviocytes proliferation and inflammation (KI-67, COX-2 staining)” value ([1]; 25 mg/kg) was “inhibition; also recorded: suppresses” and the “serum levels of IL-1β” value [1, 4] was “significant decreases”. For the same compound, the “serum levels of IL-6” value [1, 4] was “significant decreases”, the arthritis scores ([1]; day 21, SAHA 200 mg/kg, indomethacin 1 mg/kg, vs vehicle) was “significant reductions” and the paw swelling [1, 5] was “significant reductions”. The paw volume [1, 5] was “significant reductions”, the IC50 (interleukin-6 (IL-6)) was 10 nM and the “acetylation of histone H3 in HIG-82 synoviocytes” value (histone H3 (Acetyl-H3)) was “significant hyperacetylation of histone H3”. For the same compound, the Lethality ([2]; 250 mg/kg po) was 0%, the “Change of body weight Day 7” value ([2]; 250 mg/kg po) was “+8.7 ± 0.5%” and the “Change of body weight Day 14” value ([2]; 250 mg/kg po) was “+17.0 ± 0.4%”. For the same compound, the “Change of body weight Day 21” value ([2]; 250 mg/kg po) was “+22.6 ± 0.6%”, the Lethality ([2]; 500 mg/kg po) was 0% and the “Change of body weight Day 7” value ([2]; 500 mg/kg po) was “+1.6 ± 0.3%”. The “Change of body weight Day 14” value ([2]; 500 mg/kg po) was “+16.5 ± 0.6%”, the “Change of body weight Day 21” value ([2]; 500 mg/kg po) was “+24.0 ± 0.9%” and the Lethality ([2]; 1000 mg/kg po) was 0%. For the same compound, the “Change of body weight Day 7” value ([2]; 1000 mg/kg po) was “+4.4 ± 0.6%”, the “Change of body weight Day 14” value ([2]; 1000 mg/kg po) was “+12.0 ± 0.7%” and the “Change of body weight Day 21” value ([2]; 1000 mg/kg po) was “+15.3 ± 0.8%”. For the same compound, the adverse effects ([2]; mice, dosage of up to 1000 mg/kg/day, within three weeks) was “No significant adverse effects”, the “levels of HDAC3 in RA-FLS” value (HDAC3) was “decreased levels of HDAC3” and the “paw thickness reduced compared to control” value ([3]; compound 9 25 mg/kg oral, 3 h after carrageenan) was 21.3%. The “carrageenan-induced hind paw edema” value ([3]; oral, 1 h before carrageenan, compound 9 25 mg/kg, SAHA 200 mg/kg, Indomethacin 5 mg/kg, measured 3 h after) was “significantly inhibited; also recorded: suppress”, the “NO production by RAW264.7 cells” value (nitric oxide (NO); MPT0G009 0.1, 1, 10 μM, SAHA 0.3, 3, 30 μM, LPS 25 ng/mL 24 h) was “inhibited” and the IC50 (nitric oxide (NO); Mus musculus, RAW264.7, LPS-stimulated RAW 264.7 macrophages, mean ± SEM, three experiments) was 1070 nM. The “collagen I production” value (collagen I) was “inhibited”.
